What is called pKi is the Ki on a negative log10 scale, so that one unit is a factor of ten.

Among the data in patent US10899755B2, “Benzothiazole compounds and uses thereof” (Incyte Corporation, priority 2018, dated 2021) are Ki values, retold here.

Molecules are shown by their SMILES. pKi: −log10 of the molar value.

Sequence of HPK1 (Homo sapiens, UniProt Q92918) (Q92918 whole entry, looked up): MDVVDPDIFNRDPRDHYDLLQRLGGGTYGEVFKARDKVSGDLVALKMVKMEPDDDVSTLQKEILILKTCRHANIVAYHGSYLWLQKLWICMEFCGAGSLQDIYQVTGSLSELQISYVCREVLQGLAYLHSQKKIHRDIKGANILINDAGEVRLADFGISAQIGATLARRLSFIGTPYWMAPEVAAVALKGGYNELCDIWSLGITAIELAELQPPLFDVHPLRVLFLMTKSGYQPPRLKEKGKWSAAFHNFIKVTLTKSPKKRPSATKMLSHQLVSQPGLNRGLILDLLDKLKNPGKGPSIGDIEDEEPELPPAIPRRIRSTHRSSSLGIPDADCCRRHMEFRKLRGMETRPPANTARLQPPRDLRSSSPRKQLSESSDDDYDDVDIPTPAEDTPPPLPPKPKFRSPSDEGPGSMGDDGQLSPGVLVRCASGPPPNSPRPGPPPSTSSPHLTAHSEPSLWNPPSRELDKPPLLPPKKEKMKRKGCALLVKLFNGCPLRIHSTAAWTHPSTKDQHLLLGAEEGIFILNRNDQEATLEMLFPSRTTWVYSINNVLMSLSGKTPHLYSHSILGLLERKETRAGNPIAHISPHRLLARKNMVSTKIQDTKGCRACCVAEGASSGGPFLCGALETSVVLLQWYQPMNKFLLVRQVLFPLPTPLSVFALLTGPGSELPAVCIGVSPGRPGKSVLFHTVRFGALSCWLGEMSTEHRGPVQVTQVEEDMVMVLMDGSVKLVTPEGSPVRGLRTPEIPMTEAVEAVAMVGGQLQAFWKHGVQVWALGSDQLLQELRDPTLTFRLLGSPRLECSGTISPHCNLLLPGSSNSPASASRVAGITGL

One test has as its target HPK1 (Homo sapiens, UniProt Q92918). Briefly: HPK1 Kinase Binding Assay. To be noted: active HPK1 (SignalChem M23-11G), tracer 222, LanthaScreen Eu-Anti GST antibody, one hour incubation at 25° C. On the technique in general: TR-FRET usually uses a lanthanide donor and a delayed reading to cut background.
Protocol: (§1) A stock solution of 1 mM test compound was prepared in DMSO. The compound plate was prepared by 3-fold and 11-point serial dilutions. 0.1 μL of the compound in DMSO was transferred from the compound plate to the white 384 well polystyrene plates. The assay buffer contained 50 mM HEPES, pH 7.5, 0.01% Tween-20, 5 mM MgCl2, 0.01% BSA, and 5 mM DTT. 5 μL of 4 nM active HPK1 (SignalChem M23-11G) prepared in the buffer was added to the plate. The enzyme concentration given was based on the given stock concentration reported by the vender. […] After one hour incubation at 25° C., the plates were read on a PHERAstar FS plate reader (BMG Labtech). Ki values were determined.
The compound `COc1cccc(F)c1-c1nccc(C(=O)Nc2cc(C#N)c3sc(C)nc3c2N2CC[C@H](N)C2)n1` [Example 8, (S)—N-(4-(3-Aminopyrrolidin-1-yl)-7-cyano-2-methylbenzo[d]thiazol-5-yl)-2-(2-fluoro-6-methoxyphenyl)pyrimidine-4-carboxamide] showed a pKi of more than 7.00.

Consider `CNCc1cc(C)c(-c2nccc(C(=O)Nc3ccc4sc(C)nc4c3N3CC[C@@H](N)C3)n2)c(F)c1` [Example 4, (R)—N-(4-(3-Aminopyrrolidin-1-yl)-2-methylbenzo[d]thiazol-5-yl)-2-(2-fluoro-6-methyl-4-((methylamino)methyl)phenyl)pyrimidine-4-carboxamide], for which the pKi was more than 7.00. The same measure, in the same setting: the value for `Cc1nc2c(N3CC[C@@H](N)C3)c(NC(=O)c3ccnc(-c4c(F)cccc4F)n3)ccc2s1` [Example 1, (R)—N-(4-(3-Aminopyrrolidin-1-yl)-2-methylbenzo[d]thiazol-5-yl)-2-(2,6-difluorophenyl)pyrimidine-4-carboxamide] was more than 7.00; that for `COCc1nc2c(N3CCC[C@H]3CN)c(NC(=O)c3ccnc(-c4c(F)cccc4OC)n3)ccc2s1` [Example 9, (S)—N-(4-(2-(Aminomethyl)pyrrolidin-1-yl)-2-(methoxymethyl)benzo[d]thiazol-5-yl)-2-(2-fluoro-6-methoxyphenyl)pyrimidine-4-carboxamide] was more than 7.00; that for `COc1cccc(F)c1-c1nccc(C(=O)Nc2ccc3sc(C)nc3c2N2C[C@H](NC(C)C)C[C@H]2CO)n1` [Example 18, 2-(2-Fluoro-6-methoxyphenyl)-N-(4((2S,4R)-2-(hydroxymethyl)-4-(isopropylamino)pyrrolidin-1-yl)-2-methylbenzo[d]thiazol-5-yl)pyrimidine-4-carboxamide] was more than 7.00.

Compound `[2H]C([2H])([2H])Oc1ccc(C#N)c(F)c1-c1nccc(C(=O)Nc2ccc3sc(C)nc3c2N2C[C@H](N)C[C@H]2CO)n1` [Example 17, N-(4-((2S,4R)-4-Amino-2-(hydroxymethyl)pyrrolidin-1-yl)-2-methylbenzo[d]thiazol-5-yl)-2-(3-cyano-2-fluoro-6-(methoxy-d3)phenyl)pyrimidine-4-carboxamide] showed a pKi of more than 7.00. On to `COc1cccc(F)c1-c1nccc(C(=O)Nc2ccc3sc(C)nc3c2N2C[C@H](NC(C)=O)C[C@H]2CO)n1` [Example 20, N-(4-((2S,4R)-4-Acetamido-2-(hydroxymethyl)pyrrolidin-1-yl)-2-methylbenzo[d]thiazol-5-yl)-2-(2-fluoro-6-methoxyphenyl)pyrimidine-4-carboxamide], for which the pKi was more than 7.00.

In turn, `COc1cccc(F)c1-c1nccc(C(=O)Nc2ccc3sc(C)nc3c2N2C[C@H]3C[C@@H]2CN3C(=O)N2CCOCC2)n1` [Example 25, 2-(2-Fluoro-6-methoxyphenyl)-N-(2-methyl-4((1R,4R)-5-(morpholine-4-carbonyl)-2,5-diazabicyclo[2.2.1]heptan-2-yl)benzo[d]thiazol-5-yl)pyrimidine-4-carboxamide] gave a pKi of more than 7.00. Take `COc1cccc(F)c1-c1nccc(C(=O)Nc2ccc3sc(C)nc3c2N2CCC3CCNCC32)n1` (stereo not drawn) [Example 28, 2-(2-Fluoro-6-methoxyphenyl)-N-(2-methyl-4-(octahydro-1H-pyrrolo[2,3-c]pyridin-1-yl)benzo[d]thiazol-5-yl)pyrimidine-4-carboxamide]: the pKi was more than 7.00. `COc1cccc(F)c1-c1nccc(C(=O)Nc2ccc3sc(C)nc3c2N2C[C@H]3C[C@@H]2CO3)n1` [Example 22, N-(4-((1R,4R)-2-Oxa-5-azabicyclo[2.2.1]heptan-5-yl)-2-methylbenzo[d]thiazol-5-yl)-2-(2-fluoro-6-methoxyphenyl)pyrimidine-4-carboxamide] had a pKi of more than 7.00. Compound `CCc1nc2c(N3C[C@@H](N)C[C@H]3CO)c(NC(=O)c3ccnc(-c4c(F)cccc4OC)n3)ccc2s1` [Example 12, N-(4-((2S,4S)-4-Amino-2-(hydroxymethyl)pyrrolidin-1-yl)-2-ethylbenzo[d]thiazol-5-yl)-2-(2-fluoro-6-methoxyphenyl)pyrimidine-4-carboxamide] gave a pKi of more than 7.00. The same measure, in the same setting: the value for `COc1cccc(F)c1-c1nccc(C(=O)Nc2ccc3sc(C)nc3c2N2CCC(c3ccccn3)C2)n1` (stereo not drawn) [Example 29, 2-(2-Fluoro-6-methoxyphenyl)-N-(2-methyl-4-(3-(pyridin-2-yl)pyrrolidin-1-yl)benzo[d]thiazol-5-yl)pyrimidine-4-carboxamide] was more than 7.00.

For `COc1cccc(F)c1-c1nccc(C(=O)Nc2ccc3sc(C)nc3c2N2CC(F)(F)C[C@H]2CO)n1` [Example 30, (S)—N-(4-(4,4-Difluoro-2-(hydroxymethyl)pyrrolidin-1-yl)-2-methylbenzo[d]thiazol-5-yl)-2-(2-fluoro-6-methoxyphenyl)pyrimidine-4-carboxamide], the pKi was more than 7.00. Compound `COc1cccc(F)c1-c1nccc(C(=O)Nc2ccc3sc(C)nc3c2N(C)CC2CCN(C)C2)n1` (stereo not drawn) [Example 24, 2-(2-Fluoro-6-methoxyphenyl)-N-(2-methyl-4-(methyl((1-methylpyrrolidin-3-yl)methyl)amino)benzo[d]thiazol-5-yl)pyrimidine-4-carboxamide] gave a pKi of more than 7.00. In turn, `COc1cccc(F)c1-c1nccc(C(=O)Nc2cc(Cl)c3sc(C)nc3c2N2CC[C@H](N)C2)n1` [Example 5, (S)—N-(4-(3-Aminopyrrolidin-1-yl)-7-chloro-2-methylbenzo[d]thiazol-5-yl)-2-(2-fluoro-6-methoxyphenyl)pyrimidine-4-carboxamide] had a pKi of more than 7.00. The same measure, in the same setting: the value for `COCCc1nc2c(N3CCC[C@H]3CN)c(NC(=O)c3ccnc(-c4c(F)cccc4OC)n3)ccc2s1` [Example 10, (S)—N-(4-(2-(Aminomethyl)pyrrolidin-1-yl)-2-(2-methoxyethyl)benzo[d]thiazol-5-yl)-2-(2-fluoro-6-methoxyphenyl)pyrimidine-4-carboxamide] was more than 7.00. As to `COc1ccc(F)c(F)c1-c1nccc(C(=O)Nc2ccc3sc(C)nc3c2N2C[C@H](N)C[C@H]2CO)n1` [Example 16, N-(4-((2S,4R)-4-Amino-2-(hydroxymethyl)pyrrolidin-1-yl)-2-methylbenzo[d]thiazol-5-yl)-2-(2,3-difluoro-6-methoxyphenyl)pyrimidine-4-carboxamide], the pKi is more than 7.00. Still for that read-out and setting: the value for `COc1cccc(F)c1-c1nccc(C(=O)Nc2ccc3sc(C)nc3c2N2C[C@H](NS(C)(=O)=O)C[C@H]2CO)n1` [Example 21, 2-(2-Fluoro-6-methoxyphenyl)-N-(4((2S,4R)-2-(hydroxymethyl)-4-(methylsulfonamido)pyrrolidin-1-yl)-2-methylbenzo[d]thiazol-5-yl)pyrimidine-4-carboxamide] was more than 7.00; that for `COc1cccc(F)c1-c1nccc(C(=O)Nc2cc(Br)c3sc(C)nc3c2N2CC[C@H](N)C2)n1` [Example 6, (S)—N-(4-(3-Aminopyrrolidin-1-yl)-7-bromo-2-methylbenzo[d]thiazol-5-yl)-2-(2-fluoro-6-methoxyphenyl)pyrimidine-4-carboxamide] was more than 7.00. On to `COc1cccc(F)c1-c1nccc(C(=O)Nc2ccc3sc(C)nc3c2N2C[C@H](N)C[C@H]2CO)n1` [Example 11, N-(4-((2S,4R)-4-Amino-2-(hydroxymethyl)pyrrolidin-1-yl)-2-methylbenzo[d]thiazol-5-yl)-2-(2-fluoro-6-methoxyphenyl)pyrimidine-4-carboxamide], for which the pKi was more than 7.00.

In a further test the target is HPK1. As to the kind of experiment: HPK1 Kinase Binding Assay. The settings on record: active HPK1 (SignalChem M23-11G), tracer 222, LanthaScreen Eu-Anti GST antibody, one hour incubation at 25° C.
Protocol: as §1
`Cc1nc2c(N3CC[C@@H](N)C3)c(NC(=O)c3ccnc(-c4c(F)cccc4C(F)(F)F)n3)ccc2s1` [Example 3, (R)—N-(4-(3-Aminopyrrolidin-1-yl)-2-methylbenzo[d]thiazol-5-yl)-2-(2-fluoro-6-(trifluoromethyl)phenyl)pyrimidine-4-carboxamide]: the pKi is more than 7.00.
